These results are taken from patent US20060188879A1, “Crh responsive genes in cns” (Janssen Pharmaceutica N.V., priority 2002, published 2006).

Format in all cases: in vivo, mouse
The test system of experiment [1] is neurotensin receptor 2 (Ntsr2). As to the kind of experiment: Quantitative RT-PCR / microarray of Ntsr2 mRNA in brain areas of treated WT and CRF-OE mice. The following applies: 10 mg/kg, 2 times per day for 5 days, 16 hrs after last treatment. The procedure: (§1) Animal housing and treatment—Male transgenic CRF overexpressing C57BL/6J mice (CRF-OE or TG) and their wild-type littermates (WT) were maintained in an specific pathogen free facility that meets all national and European requirements for animal care. Mice were housed individually 4 weeks before the start of the experiment in a climate-controlled animal colony with a 12 h dark-light cycle (light on 7:00 EST) with free access to food and water. Prior to treatment 3 month old mice were randomized over three groups each comprising 4 wild-type and 4 transgenic animals. One group received no treatment, a second group received vehicle injection 5 days, 2 times per day (10% cyclodextran (CD), pH4) and a third group received 10 mg/kg of a CRH-R1 specific antagonist R121919 in 10% CD following the same regime. 16 hrs after last treatment animals were sacrificed for dissection of brain areas and subsequent isolation of RNA. […]
Microarray hybridization—cRNA was prepared as follows. […] Subsequently arrays were scanned with a HP-Laserscanner and data were analyzed with the Microarray Suite Software (Affymetrix). […] Quality of the experiment was assessed based on the percentages present calls (see table).
Quantitative RT-PCR—Microarray data were confirmed using real time PCR analysis. […] Quantitative PCR was performed on a ABIPrism 7700 cycler (Applied Biosystems) using a Taqman PCR kit. […]

The subject of experiment [2] is all NTS-sites (Nts1-3). In words: [125I]NT binding, quantitative autoradiography on brain sections of treated mice. The note with it: subchronic administration. The procedure:
FIG. 6: [^125I]NT binding (0.1 nM, 30 min, RT) to all NTS-sites determined via quantitative autoradiography on frozen glass-mounted brain tissue sections. Data are represented as the average IOD±SEM of three animals determined on at least three different Bregma sections each.
Animal housing and treatment—Male transgenic CRF overexpressing C57BL/6J mice (CRF-OE or TG) and their wild-type littermates (WT) were maintained in an specific pathogen free facility that meets all national and European requirements for animal care. Mice were housed individually 4 weeks before the start of the experiment in a climate-controlled animal colony with a 12 h dark-light cycle (light on 7:00 EST) with free access to food and water. Prior to treatment 3 month old mice were randomized over three groups each comprising 4 wild-type and 4 transgenic animals. One group received no treatment, a second group received vehicle injection 5 days, 2 times per day (10% cyclodextran (CD), pH4) and a third group received 10 mg/kg of a CRH-R1 specific antagonist R121919 in 10% CD following the same regime. 16 hrs after last treatment animals were sacrificed for dissection of brain areas and subsequent isolation of RNA.
Autoradiography—[^125 I]Neurotensin binding and film radiographs on brains of adult male transgenic C57BU6J mice and their wild-type littermates, was performed as described previously by Moyse et al. (12). […] Incubating additional sections in the presence of 1 μM native neurotensin assessed the non-specific staining. […] On each section structures were delineated interactively and pixel gray levels were measured in the outlined areas. The pixel gray levels were converted to radioactivity per mg of tissue using the co-exposed ^125I-standards and averaged over the measured area. Data were analyzed statistically by a two-way ANOVA and concomitant Bonferroni's Post-hoc test using SPSS 11.0 software.

Experiment [3] has as its system neurotensin receptor 1 (Ntsr1). In words: Quantitative RT-PCR of Ntsr1 mRNA in brain areas of treated WT and CRF-OE mice. The following applies: 10 mg/kg, 2 times per day for 5 days, 16 hrs after last treatment, hippocampus. The procedure: as §1
Quantitative RT-PCR—Microarray data were confirmed using real time PCR analysis. […] Quantitative PCR was performed on a ABIPrism 7700 cycler (Applied Biosystems) using a Taqman PCR kit. […] A linear regression line calculated from the standard curves allowed the determination of transcript levels in RNA samples from the different treatment groups at each brain area.

Experiment [4] concerns gene expression profiles in brain areas of CRH overexpressing mice. As to the kind of experiment: Microarray gene expression profiles of brain areas (spectral map analysis, SAM). The method, then: Animal housing and treatment—Male transgenic CRF overexpressing C57BL/6J mice (CRF-OE or TG) and their wild-type littermates (WT) were maintained in an specific pathogen free facility that meets all national and European requirements for animal care. Mice were housed individually 4 weeks before the start of the experiment in a climate-controlled animal colony with a 12 h dark-light cycle (light on 7:00 EST) with free access to food and water. Prior to treatment 3 month old mice were randomized over three groups each comprising 4 wild-type and 4 transgenic animals. […]
Microarray hybridization—cRNA was prepared as follows. […] Subsequently arrays were scanned with a HP-Laserscanner and data were analyzed with the Microarray Suite Software (Affymetrix). […] Quality of the experiment was assessed based on the percentages present calls (see table). […]
Basically this alignment sets the average intensity of one array to the average measured this normalization compensates for array to array variations in hybridization, washing and staining, ultimately allowing a reasonable comparison between arrays. After normalization, data were analyzed using weighted spectral mapping analysis (SMA) (7). […]

Entries after “also recorded” stand apart in the source; their conditions may differ.

Turning to `CCCN(CCC)c1cc(C)nc2c(-c3cnc(N(C)C)cc3C)c(C)nn12` [R121919], the “Upregulation of Ntsr2 mRNA expression in vehicle treated animals (repeated injection stress)” value in experiment [1] was “abolished; also recorded: counteracted”. Moreover, the “Downregulation of [125I]NT binding at total NT binding level” value in experiment [2] (CRF-OE mice) was “counteracted the downregulation”. In addition, the “[125I]NT binding capacity compared to vehicle treated animals” value in experiment [2] (stratum radiatum bordering CA1-CA2 region, both WT and CRF-OE animals, p=0.057) is “upward trend”. Moreover, the “Level of [125I]NT binding in treated CRF-OE animals versus untreated animals” value in experiment [2] (stratum radiatum, CRF-OE mice) is on record as “equaled the level measured in untreated WT-animals; also recorded: equaled that in untreated animals”. Also, the “Upregulation of Ntsr1 mRNA expression in vehicle treated animals (repeated injection stress)” value in experiment [3] is “abolished; also recorded: counteracted”. The “Changes in gene expression profile of CRH overexpressing (Tg) versus WT animals” value in experiment [4] (5 day treatment, all studied brain areas, exemplified by pituitary spectral map, listed as CRH-R1 antagonist) is given as “not affected (or only to a limited degree); also recorded: does not lead to a general ‘normalization’”. Also, in experiment [4] (transgenic animals, pituitary), the “Effect on expression levels at the pituitary level” value is on record as “some effect of the compound is measured”.
